For orientation: MIC means the smallest concentration in the dilution series that meets the test's criterion for growth inhibition.

Here are results for 13 compounds from patent US10723741B1, “DNA polymerase IIIC inhibitors and use thereof” (Acurx Pharmaceuticals, LLC, priority 2018, dated 2020).

Converted amounts (≈) assume the structure as drawn. Structures can show the parent of a compound that is named as a salt. Where two headings read alike, the source gives them in different places. Where only a bound is given, the exact number is not on record here.

Common to all, as to assay type: cell-based
The subject of test [1] is Enterococcus faecalis ATCC 29212. In words: Broth microdilution MIC, E. faecalis ATCC 29212. As to conditions: read-out: MIC E. faecalis ATCC 29212. The method, boiled down: (§1)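 Broth microdilution in strain-specific test medium with ~5.0×10^5 cfu/ml inoculum, 1% DMSO and two-fold compound dilutions from 64 to 0.0625 μg/ml. Plates were held 20 hours at 37° C in ambient air. S. pneumoniae colonies were grown beforehand on blood agar in 5% CO2.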
(Dilution methods test growth across graded concentrations, often in twofold steps.)

The test system of test [2] is Bacillus subtilis ATCC 6633. In words: Broth microdilution MIC, B. subtilis ATCC 6633. Conditions: read-out: MIC B. subtilis ATCC 6633. The procedure, abridged: as §1
The test system of test [3] is Enterococcus faecium ATCC 700221 (VRE). Nature of the test: Broth microdilution MIC, E. faecium ATCC 700221 (VRE). Conditions: Enterococcus faecium, read-out: MIC E. faecium ATCC 700221 (VRE). The method, boiled down: as §1
Test [4] concerns Staphylococcus aureus ATCC 29213 (MSSA). Nature of the test: Broth microdilution MIC, S. aureus ATCC 29213 (MSSA). As to conditions: read-out: MIC S. aureus ATCC 29213 (MSSA). The procedure, abridged: as §1
For test [5], the system named is Staphylococcus aureus NRS384 (MRSA). Nature of the test: Broth microdilution MIC, S. aureus NRS384 (MRSA). Conditions: Staphylococcus aureus, read-out: MIC NRS 384 (MRSA). The procedure, abridged: as §1
Test [6] has as its system Streptococcus pneumoniae ATCC 49619. In words: Broth microdilution MIC, S. pneumoniae ATCC 49619. Conditions: read-out: MIC S. pneumoniae ATCC 49619. The procedure, abridged: as §1
The test system of test [7] is Escherichia coli ATCC 25922. In words: Broth microdilution MIC, E. coli ATCC 25922 (MHIIB w & w/o 4 mM EDTA). As to conditions: for MIC: Escherichia coli, read-out: MIC E. coli ATCC 25922; for MIC E. coli ATCC 25922 + 4 mM EDTA: with 4 mM EDTA. The method, boiled down: as §1
Where [8] appears, read: ATCC29212, broth microdilution, 37° C., 20 hours.
[9] abbreviates: ATCC6633, broth microdilution, 37° C., 20 hours.
Setting [10] is: broth microdilution, 37° C., 20 hours.
The mark [11] stands for this setting: ATCC49619, broth microdilution, 37° C., 20 hours.
Where [12] appears, read: ATCC25922, without EDTA, broth microdilution, 37° C., 20 hours.

`COCCOCCn1cc2nc(NCc3ccc(Cl)c(Cl)c3)[nH]c(=O)c2n1` [Compound 137, 5-((3,4-Dichlorobenzyl)amino)-2-(2-(2-methoxyethoxy)ethyl)-2H-pyrazolo[4,3-d]pyrimidin-7(6H)-one]: the MIC stood at 32 µg/mL (≈ 77.6 µM) in test [1] (setting [8]); 16 µg/mL (≈ 38.8 µM) in test [2] (setting [9]); 16 µg/mL (≈ 38.8 µM) in test [3] (setting [10]); 32 µg/mL (≈ 77.6 µM) in test [4] (setting [10]); 32 µg/mL (≈ 77.6 µM) in test [5] (setting [10]); 16 µg/mL (≈ 38.8 µM) in test [6] (setting [11]). The MIC in test [7] (setting [12]) is > 64 µg/mL. Further, the “MIC E. coli ATCC 25922 + 4 mM EDTA” value in test [7] (setting [10]) is >64 µg/mL.

With `O=c1[nH]c(NCc2ccc(Cl)c(Cl)c2)nc2cn(-c3ncccn3)nc12` [Compound 140, 5-((3,4-Dichlorobenzyl)amino)-2-(pyrimidin-2-yl)-2H-pyrazolo[4,3-d]pyrimidin-7(6H)-one], the MIC in test [1] (setting [8]) is > 64 µg/mL; in test [2] (setting [9]), 4 µg/mL (≈ 10.3 µM); in test [3] (setting [10]), 32 µg/mL (≈ 82.4 µM); in test [4] (setting [10]), > 64 µg/mL; in test [5] (setting [10]) it was > 64 µg/mL; in test [6] (setting [11]), 4 µg/mL (≈ 10.3 µM). In test [7] (setting [12]), the MIC is > 64 µg/mL. The “MIC E. coli ATCC 25922 + 4 mM EDTA” value in test [7] (setting [10]) is >64 µg/mL.

With `Cl.O=c1[nH]c(NCc2ccc(Cl)c(Cl)c2)nc2cnn(CC3C(O)C4CCN3CC4)c12` (centres unmarked) [Compound 236, 5-((3,4-Dichlorobenzyl)amino)-1-((3-hydroxyquinuclidin-2-yl)methyl)-1H-pyrazolo[4,3-d]pyrimidin-7(6H)-one], the MIC is 64 µg/mL in test [1] (setting [8]); 32 µg/mL in test [2] (setting [9]); 64 µg/mL in test [3] (setting [10]); > 64 µg/mL in test [4] (setting [10]); > 64 µg/mL in test [5] (setting [10]); 8 µg/mL in test [6] (setting [11]). The MIC in test [7] (setting [12]) was > 64 µg/mL. Further, the “MIC E. coli ATCC 25922 + 4 mM EDTA” value in test [7] (setting [10]) was found to be 64 µg/mL.

Consider `CC(C)(C)OC(=O)N1CCC(CN2CCC(n3ncc4nc(NCc5ccc(Cl)c(Cl)c5)[nH]c(=O)c43)CC2)CC1` [Compound 248, tert-Butyl 4-((4-(5-((3,4-dichlorobenzyl)amino)-7-oxo-6,7-dihydro-1H-pyrazolo[4,3-d]pyrimidin-1-yl)piperidin-1-yl)methyl)piperidine-1-carboxylate2,2,2-trifluoroacetate], for which the MIC in test [1] (setting [8]) stood at 4 µg/mL (≈ 6.77 µM); in test [2] (setting [9]), 4 µg/mL (≈ 6.77 µM); in test [3] (setting [10]) it was 4 µg/mL (≈ 6.77 µM); in test [4] (setting [10]), 16 µg/mL (≈ 27.1 µM); in test [5] (setting [10]), 16 µg/mL (≈ 27.1 µM); in test [6] (setting [11]) it was 8 µg/mL (≈ 13.5 µM). In addition, in test [7] (setting [12]), the MIC is > 64 µg/mL. In test [7] (setting [10]), the “MIC E. coli ATCC 25922 + 4 mM EDTA” value was 8 µg/mL.

Consider `CN(C)C(=O)C1CN(CCn2ncc3nc(NCc4ccc(Cl)c(Cl)c4)[nH]c(=O)c32)CCO1.Cl` (centres unmarked) [Compound 72, 4-(2-(5-((3,4-Dichlorobenzyl)amino)-7-oxo-6,7-dihydro-1H-pyrazolo[4,3-d]pyrimidin-1-yl)ethyl)-N,N-dimethylmorpholine-2-carboxamide hydrochloride], for which the MIC in test [1] (setting [8]) was found to be 8 µg/mL; in test [2] (setting [9]) it was 4 µg/mL; in test [3] (setting [10]) it was 8 µg/mL; in test [4] (setting [10]), 16 µg/mL; in test [5] (setting [10]), 16 µg/mL; in test [6] (setting [11]), 8 µg/mL. The MIC in test [7] (setting [12]) is > 64 µg/mL. Also, the “MIC E. coli ATCC 25922 + 4 mM EDTA” value in test [7] (setting [10]) is >64 µg/mL.

For `Cl.O=c1[nH]c(NCc2ccc(Cl)c(Cl)c2)nc2cnn(CCN3CC(O)C3)c12` [Compound 70, 5-((3,4-Dichlorobenzyl)amino)-1-(2-(3-hydroxyazetidin-1-yl)ethyl)-1H-pyrazolo[4,3-d]pyrimidin-7(6H)-one hydrochloride], the MIC in test [1] (setting [8]) was 64 µg/mL; in test [2] (setting [9]) it was 16 µg/mL; in test [3] (setting [10]), > 64 µg/mL; in test [4] (setting [10]), > 64 µg/mL; in test [5] (setting [10]) it was 64 µg/mL; in test [6] (setting [11]) it was 8 µg/mL. Moreover, the MIC in test [7] (setting [12]) was > 64 µg/mL. In addition, in test [7] (setting [10]), the “MIC E. coli ATCC 25922 + 4 mM EDTA” value stood at 64 µg/mL.

Turning to `CN1CCC(n2ncc3nc(NCc4ccc(Cl)c(Cl)c4)[nH]c(=O)c32)C1` (centres unmarked) [Compound 243, 5-((3,4-Dichlorobenzyl)amino)-1-(1-methylpyrrolidin-3-yl)-1H-pyrazolo[4,3-d]pyrimidin-7(6H)-one TFA salt], the MIC amounted to 8 µg/mL in test [1] (ATCC29212, 20 h); 4 µg/mL in test [2] (ATCC6633, 20 h); 4 µg/mL in test [3] (20 h); 8 µg/mL in test [4] (20 h); 8 µg/mL in test [5] (20 h); 4 µg/mL in test [6] (ATCC49619, 20 h). The MIC in test [7] (ATCC25922, 20 h) was > 64 µg/mL. In addition, in test [7] (setting [10]), the “MIC E. coli ATCC 25922 + 4 mM EDTA” value turned out to be 32 µg/mL.

Take `Cl.O=C(O)C1(Cn2ncc3nc(NCc4ccc(Cl)c(Cl)c4)[nH]c(=O)c32)CCNCC1` [Compound 196, 4-((5-((3,4-dichlorobenzyl)amino)-7-oxo-6,7-dihydro-1H-pyrazolo[4,3-d]pyrimidin-1-yl)methyl)piperidine-4-carboxylic acid hydrochloride]: the MIC in test [1] (setting [8]), in test [2] (setting [9]), in test [3] (setting [10]), in test [4] (setting [10]), in test [5] (setting [10]) and in test [6] (setting [11]) was > 64 µg/mL throughout. For the same compound, the MIC in test [7] (setting [12]) was > 64 µg/mL. Further, in test [7] (setting [10]), the “MIC E. coli ATCC 25922 + 4 mM EDTA” value was >64 µg/mL.

In the case of `O=c1[nH]c(NCc2ccc(Cl)c(Cl)c2)nc2cnn(Cc3ccc(O)c(O)c3)c12` [Compound 189, 5-((3,4-dichlorobenzyl)amino)-1-(3,4-dihydroxybenzyl)-1H-pyrazolo[4,3-d]pyrimidin-7(6H)-one], the MIC came out at 16 µg/mL (≈ 37 µM) in test [1] (setting [8]); 16 µg/mL (≈ 37 µM) in test [2] (setting [9]); 8 µg/mL (≈ 18.5 µM) in test [3] (setting [10]); 16 µg/mL (≈ 37 µM) in test [4] (setting [10]); 16 µg/mL (≈ 37 µM) in test [5] (setting [10]); 64 µg/mL (≈ 148 µM) in test [6] (setting [11]). Further, the MIC in test [7] (setting [12]) was > 64 µg/mL. In addition, the “MIC E. coli ATCC 25922 + 4 mM EDTA” value in test [7] (setting [10]) turned out to be 64 µg/mL.

Take `COP(=O)(OC)OCCOCCn1ncc2nc(NCc3ccc(Cl)c(Cl)c3)[nH]c(=O)c21` [Compound 297, 2-(2-(5-((3,4-dichlorobenzyl)amino)-7-oxo-6,7-dihydro-1H-pyrazolo[4,3-d]pyrimidin-1-yl)ethoxy)ethyl dimethyl phosphate]: the MIC in test [1] (ATCC29212, 20 h) worked out at 16 µg/mL; in test [2] (ATCC6633, 20 h), 8 µg/mL; in test [3] (20 h), 8 µg/mL; in test [4] (20 h), 16 µg/mL; in test [5] (20 h), 32 µg/mL; in test [6] (ATCC49619, 20 h) it was 8 µg/mL. Moreover, the MIC in test [7] (ATCC25922, 20 h) is > 64 µg/mL. For the same compound, the “MIC E. coli ATCC 25922 + 4 mM EDTA” value in test [7] (setting [10]) was >64 µg/mL.

With `Cn1ncc2nc(NCc3ccc4[nH]ccc4c3)[nH]c(=O)c21` [Compound 14, 5-(((1H-indol-5-yl)methyl)amino)-1-methyl-1H-pyrazolo[4,3-d]pyrimidin-7(6H)-one], the MIC in test [1] (setting [8]), in test [2] (setting [9]), in test [3] (setting [10]), in test [4] (setting [10]), in test [5] (setting [10]) and in test [6] (setting [11]) was > 64 µg/mL throughout. In test [7] (setting [12]), the minimal inhibitory concentration (MIC) is > 64 µg/mL. Also, the “MIC E. coli ATCC 25922 + 4 mM EDTA” value in test [7] (setting [10]) was >64 µg/mL.

For `Cl.O=C(c1ccccn1)N1CCC(n2ncc3nc(NCc4ccc(Cl)c(Cl)c4)[nH]c(=O)c32)C1` (centres unmarked) [Compound 257, 5-((3,4-Dichlorobenzyl)amino)-1-(1-picolinoylpyrrolidin-3-yl)-1H-pyrazolo[4,3-d]pyrimidin-7(6H)-one], the MIC in test [1] (setting [8]) worked out at 8 µg/mL; in test [2] (setting [9]), 2 µg/mL; in test [3] (setting [10]), 4 µg/mL; in test [4] (setting [10]), 4 µg/mL; in test [5] (setting [10]), 4 µg/mL; in test [6] (setting [11]), 4 µg/mL. In addition, in test [7] (setting [12]), the MIC was > 64 µg/mL. In test [7] (setting [10]), the “MIC E. coli ATCC 25922 + 4 mM EDTA” value was >64 µg/mL.

As to `Cn1ncc2nc(NCc3ccc4[nH]ncc4c3)[nH]c(=O)c21` [Compound 13, 5-(((1H-indazol-5-yl)methyl)amino)-1-methyl-1H-pyrazolo[4,3-d]pyrimidin-7(6H)-one], the MIC in test [1] (setting [8]), in test [2] (setting [9]), in test [3] (setting [10]), in test [4] (setting [10]), in test [5] (setting [10]) and in test [6] (setting [11]) was > 64 µg/mL throughout. Besides, the MIC in test [7] (setting [12]) was > 64 µg/mL. In test [7] (setting [10]), the “MIC E. coli ATCC 25922 + 4 mM EDTA” value was >64 µg/mL.
